Test results taken from US20250034136A1 (Nimbus Wadjet, Inc., priority 2023, published 2025).

system: p21 induction in HCT116 cells; assay: p21 induction in HCT116 cells; format: cell-based; conditions: Homo sapiens, HCT-116, 24 h, HCT116 cells, 24 h compound incubation; read-out: P21_EC50
Protocol: The colon carcinoma cell line HCT116 was obtained from ATCC and cultured in growth medium consisting of Mccoy's 5A Medium (Gibco 16600108) supplemented with 10% FBS (Transgene FS201-02) and 100 units/mL penicillin-streptomycin (Gibco 15140122) and maintained at 37° C. under 5% CO2. On the day of seeding, 2,000 cells in 30 μL of culture media were plated per well to Poly-D-Lysine 384 Well Black Clear Plates (Biocoat 356663) and incubated overnight at 37° C. under 5% CO2. The following day, compounds were serially diluted in DMSO for a total of 11 test concentrations. […] Next, 150 nL of diluted compound was added in duplicate to the assay plate, using an Echo 655 (Labcyte). The plate was centrifuged at 500 RPM for 1 min and then incubated at 37° C. under 5% CO2 for 24 h. After 24 h, medium was removed, and cells were fixed by adding 40 μL of 4% paraformaldehyde solution to each well and incubated for 20 min at room temperature. The plate was then washed 4 times with 100 μL per well of wash buffer (PBS with 0.1% Tween-20) using a microplate washer. Next, 30 μL of ice-cold methanol was added to each well and the plate was incubated at −20° C. for 10 min. The plate was washed 4 times with 100 μL per well of wash buffer by a microplate washer, then 30 μL per well of blocking buffer (Intercept PBS blocking buffer (LI-COR 927-70001) with 0.05% Tween-20) was added and the plate was incubated at room temperature with shaking for 2 h. Next, to each test well, 20 μL of primary antibody solution (p21 Waf1/CIP (12D1) RabbitmAb (Cell Signaling Technologies 2947) diluted 1:1000 and GAPDH (D4C6R) Mouse mAb (Cell Signaling Technologies 97166) diluted 1:2000 in blocking buffer) was added and the plate was placed at 4° C., overnight. The following day, the plate was washed 5 times with 100 μL per well of wash buffer using a microplate washer for 5 min. 20 μL per well of secondary antibody (IRDye 680CW Goat anti-Mouse IgG (H+L) (LI-COR 926-68070) diluted 1: 2000 in Blocking Buffer and IRDye 800CW Goat anti-Rabbit IgG (H+L) (LI-COR 926-32211) diluted 1: 2000 in Blocking Buffer) was then added and the plate was stored for 2 h in the dark at room temperature with shaking. The plate was then washed 4 times with 100 μL per well of wash buffer again using a microplate washer. Finally, the p21 signal and the GAPDH signal were quantified using a LI-COR Odyssey CLx Imager machine reading at 800 nm and 700 nm, respectively. Each plate contained DMSO control (low control) and an internal reference WRN inhibitor (high control) respectively. […] EC50 values for each compound were generated after non-linear regression curve fitting using commercially available software.

Row | Compound | EC50 [nM]
1 | CCc1c(N2CCN(C(=O)c3ncnc(C)c3O)[C@@H]3CC[C@H]32)c(=O)c2nc(N(C)C)cnc2n1CC(=O)Nc1ccc(C(F)(F)F)cc1Cl (single isomer, unassigned) [I-39, N-(2-chloro-4-(trifluoromethyl)phenyl)-2-(2-(dimethylamino)-6-ethyl-7-(−5-(5-hydroxy-6-methylpyrimidine-4-carbonyl)-2,5-diazabicyclo[4.2.0]octan-2-yl)-8-oxopyrido[2,3-b]pyrazin-5(8H)-yl)acetamide] | 2000 to 5000
2 | CCc1c(N2CCN(C(=O)c3ncnc(C)c3O)C3CCC32)c(=O)c2nc(N(C)C)cnc2n1CC(=O)Nc1ccc(C(F)(F)F)cc1Cl (racemic) [I-34, rac-N-(2-chloro-4-(trifluoromethyl)phenyl)-2-(2-(dimethylamino)-6-ethyl-7-(5-(5-hydroxy-6-methylpyrimidine-4-carbonyl)-2,5-diazabicyclo[4.2.0]octan-2-yl)-8-oxopyrido[2,3-b]pyrazin-5(8H)-yl)acetamide] | < 500
3 | CCc1c(N2CCN(C(=O)c3ncnc(C)c3O)[C@H]3CC[C@H]32)c(=O)c2nc(N(C)C)cnc2n1CC(=O)Nc1ccc(C(F)(F)F)cc1Cl (racemic) [I-106, rac-N-(2-chloro-4-(trifluoromethyl)phenyl)-2-(2-(dimethylamino)-6-ethyl-7-(5-(5-hydroxy-6-methylpyrimidine-4-carbonyl)-2,5-diazabicyclo[4.2.0]octan-2-yl)-8-oxopyrido[2,3-b]pyrazin-5(8H)-yl)acetamide] | 500 to 2000
4 | CCc1c(N2CCN(C(=O)c3ncnc(C)c3O)[C@H]3CC[C@@H]32)c(=O)c2nc(N(C)C)cnc2n1CC(=O)Nc1ccc(C(F)(F)F)cc1Cl (single isomer, unassigned) [I-40, N-(2-chloro-4-(trifluoromethyl)phenyl)-2-(2-(dimethylamino)-6-ethyl-7-(−5-(5-hydroxy-6-methylpyrimidine-4-carbonyl)-2,5-diazabicyclo[4.2.0]octan-2-yl)-8-oxopyrido[2,3-b]pyrazin-5(8H)-yl)acetamide] | < 500

same assay, conditions: Homo sapiens, HCT-116, 24 h, read-out: P21_EC50

Row | Compound | EC50 [nM]
5 | [2H]C([2H])([2H])N(c1cnc2c(n1)c(=O)c(N1CCN(C(=O)c3ncnc(C)c3O)[C@H]3CC[C@@H]31)c(CC)n2CC(=O)Nc1ccc(C(F)(F)F)cc1Cl)C([2H])([2H])[2H] [I-101, 2-(2-(bis(methyl-d3)amino)-6-ethyl-7-((1S,6S)-5-(5-hydroxy-6-methylpyrimidine-4-carbonyl)-2,5-diazabicyclo[4.2.0]octan-2-yl)-8-oxopyrido[2,3-b]pyrazin-5(8H)-yl)-N-(2-chloro-4-(trifluoromethyl)phenyl)acetamide] | < 500

biological target: WRN (BV08), human Werner helicase (Uniprot Q14191, amino acids 517-1235 with L1074F point mutation) (Homo sapiens (Human), UniProt Q14191, L1074F); assay: WRN (BV08) ADP-Glo assay; format: biochemical; conditions: class symbols A-E, read-out: ADP-Glo_hWRN_IC50
Protocol: Bovine skin gelatin (BSG), dimethyl sulfoxide (DMSO), Pluronic F-127 and tris(2-carboxyethyl)phosphine hydrochloride solution (TCEP) were purchased from Sigma-Aldrich (St. Louis, MO) at the highest level of purity possible. […] DNA strands were annealed by heating to 95° C. for 5 minutes followed by slow cooling to room temperature. Compounds in 100% DMSO (0.1 μl) were spotted into a 384-well white polystyrene Optiplate-384 (Perkin Elmer; Waltham, MA) assay plate using a LabCyte Echo 550 (Agilent; Santa Clara, CA). DMSO (0.1 μl) was added to columns 12, rows A-H and column 24, rows I-P for the maximum signal control. […] Compounds/DMSO were preincubated for 15 minutes at 25° C. with 5 μl 2×WRN (BV08), prepared as described below, in assay buffer containing 20 mM Bicine (pH=7.5), 1 mM MgCl2, 10 mM KCl, 0.1% Pluronic F-127, 0.005% BSG, 1 mM TCEP. The reaction was initiated by the addition of 5 μl 2× substrate mixture in assay buffer and incubated for 60 minutes at 25° C. The final concentrations of the assay components were 0.15 nM WRN, 5 μM ATP, and 0.1 nM DNA duplex. The final DMSO concentration was 1% and the reference compound concentration (NSC-617145) used for the minimal signal control was 20 μM. The reaction was stopped by the addition of the ADP-Glo Kit components (Promega; Madison, WI) as directed and the relative luminescence units (RLU) were read on an Envision 2104 (Perkin Elmer; Waltham, MA). % inhibition calculation:
[formula] • Where RLU=relative luminescence units, sample=signal in sample well, and MIN and MAX are the respective minimum and maximum signal controls.
[formula] • Where top and bottom are normally allowed to float but may be fixed at 100 or 0 respectively in a 3-parameter fit. Y is the % inhibition and X is the compound concentration.
Molecular Biology and virus production. […] The baculovirus from the expression plasmid WRN—BV08 was generated from transfection and amplification following the manufacturer's instructions.
Sf9 cells grown in SF900II media were infected with 1:200 WRN—BV08 P2 virus and incubated for protein expression for 72 h at 27° C. The WRN protein was purified using the following protocol. The cell pellets were thawed and resuspended in buffer A (50 mM Tris, pH 7.5, 500 mM NaCl, 1 mM TCEP, 10% Glycerol) supplemented with 0.5% CHAPS, 1 mM PMSF, 1 μg/ml Leupeptin, 1 μg/ml Pepstatin, and the Pierce Universal Nuclease and cocktail tablet. Cleared lysates were loaded onto a Ni Sepharose™ excel column and washed with buffer A and bound protein was eluted with buffer A supplemented with 300 mM imidazole. The eluted protein was dialyzed against buffer A and digested by His-tagged TEV (1:5 ratio) overnight at 4° C. ZnCl2 was added into the sample at final 15 μM before loading onto a second Ni Sepharose™ excel column. Untagged WRN protein was eluted from the column with buffer A supplemented with 20 mM imidazole, dialyzed overnight into buffer B (50 mM Tris, pH 7.5, 1 mM TCEP, 10% Glycerol) supplemented with 150 mM NaCl and loaded onto a Heparin column. Proteins were eluted with a step gradient of buffer B supplemented with 150 mM, 200 mM, 300 mM and 500 mM NaCl. WRN containing fractions were pooled and concentrated prior to loading on to size exclusion chromatography using a HiLoad 16/600 Superdex™ 200 pg column (GE Healthcare) in buffer C (20 mM HTEPES, pH 7.5, 250 mM NaCl, 0.25 mM TCEP, […]).

Sequence of WRN (BV08), human Werner helicase (Uniprot Q14191, amino acids 517-1235 with L1074F point mutation) (Q14191 other isoform, or with tags, fused parts or gaps L1074F (already in the parent)): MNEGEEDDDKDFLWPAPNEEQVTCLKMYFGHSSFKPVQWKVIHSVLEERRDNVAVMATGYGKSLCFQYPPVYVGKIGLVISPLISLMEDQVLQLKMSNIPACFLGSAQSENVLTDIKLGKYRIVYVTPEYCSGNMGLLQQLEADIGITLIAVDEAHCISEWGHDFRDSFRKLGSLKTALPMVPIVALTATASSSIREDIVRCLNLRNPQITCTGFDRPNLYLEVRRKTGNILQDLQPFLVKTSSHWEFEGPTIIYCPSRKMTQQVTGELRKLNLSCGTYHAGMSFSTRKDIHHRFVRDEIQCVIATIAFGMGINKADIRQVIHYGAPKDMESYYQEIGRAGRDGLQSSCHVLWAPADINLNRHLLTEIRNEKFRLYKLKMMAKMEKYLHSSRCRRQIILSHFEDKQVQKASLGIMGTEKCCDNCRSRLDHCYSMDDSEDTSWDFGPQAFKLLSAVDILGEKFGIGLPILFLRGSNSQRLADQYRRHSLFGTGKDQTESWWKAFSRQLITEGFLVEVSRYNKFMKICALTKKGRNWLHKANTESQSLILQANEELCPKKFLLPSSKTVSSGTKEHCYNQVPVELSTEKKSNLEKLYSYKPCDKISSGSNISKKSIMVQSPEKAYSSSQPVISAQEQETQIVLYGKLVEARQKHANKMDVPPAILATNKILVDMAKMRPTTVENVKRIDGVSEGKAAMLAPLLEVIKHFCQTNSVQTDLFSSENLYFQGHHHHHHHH

Row | Compound | IC50 [nM]
6 | CCc1c(N2CCN(C(=O)c3ncnc(C)c3O)[C@@H](C)C2)c(=O)c2nc(N(C)C)cnc2n1CC(=O)Nc1ccc(C(F)(F)F)cc1Cl [I-173, N-[2-chloro-4-(trifluoromethyl)phenyl]-2-[2-(dimethylamino)-6-ethyl-7-[(3S)-4-(5-hydroxy-6-methylpyrimidine-4-carbonyl)-3-methylpiperazin-1-yl]-8-oxo-5H,8H-pyrido[2,3-b]pyrazin-5-yl]acetamide] | 5 to 50
7 | CCc1c(N2CCN(C(=O)c3ncnc(C)c3O)C[C@@H]2C)c(=O)c2nc(N3CC[C@@H]4C[C@@H]43)cnc2n1CC(=O)Nc1ccc(C(F)(F)F)cc1Cl (single isomer, unassigned) [I-193] | ≤ 5
8 | C#C[C@H]1CN(C(=O)c2ncnc(C)c2O)CCN1c1c(CC)n(CC(=O)Nc2ccc(C(F)(F)F)cc2Cl)c2ncc(N(C)C)nc2c1=O [I-260, N-[2-chloro-4-(trifluoromethyl)phenyl]-2-[2-(dimethylamino)-6-ethyl-7-[(2S)-2-ethynyl-4-(5-hydroxy-6-methylpyrimidine-4-carbonyl)piperazin-1-yl]-8-oxo-5H,8H-pyrido[2,3-b]pyrazin-5-yl]acetamide] | 5 to 50
9 | CCc1c(N2CCN(C(=O)c3ncnc(C)c3O)[C@H](C)[C@@H]2C)c(=O)c2nc(N(C)C)cnc2n1CC(=O)Nc1ccc(C(F)(F)F)cc1Cl (single isomer, unassigned) [I-198, N-(2-chloro-4-(trifluoromethyl)phenyl)-2-(2-(dimethylamino)-6-ethyl-7-(4-(5-hydroxy-6-methylpyrimidine-4-carbonyl)-2,3-dimethylpiperazin-1-yl)-8-oxopyrido[2,3-b]pyrazin-5(8H)-yl)acetamide] | 5 to 50
10 | CCc1c(N2C[C@H]3CC[C@@H]2CN3C(=O)c2ncnc(C)c2O)c(=O)c2nc(N(C)C)cnc2n1CC(=O)Nc1ccc(C(F)(F)F)cc1Cl (single isomer, unassigned) [I-248, N-(2-chloro-4-(trifluoromethyl)phenyl)-2-(2-(dimethylamino)-6-ethyl-7-(5-(5-hydroxy-6-methylpyrimidine-4-carbonyl)-2,5-diazabicyclo[2.2.2]octan-2-yl)-8-oxopyrido[2,3-b]pyrazin-5(8H)-yl)acetamide] | 50 to 100
11 | CCc1c(N2CCN(C(=O)c3ncnc(C)c3O)C3COCC32)c(=O)c2nc(N(C)C)cnc2n1CC(=O)Nc1ccc(C(F)(F)F)cc1Cl (single isomer, unassigned) [I-295, N-(2-chloro-4-(trifluoromethyl)phenyl)-2-(2-(dimethylamino)-6-ethyl-7-(4-(5-hydroxy-6-methylpyrimidine-4-carbonyl)hexahydrofuro[3,4-b]pyrazin-1(2H)-yl)-8-oxopyrido[2,3-b]pyrazin-5(8H)-yl)acetamide] | 5 to 50
